# Results published in patent US20250302792A1, “ACTIVE SUBSTANCES FOR MEDICAL USE” (inflamed pharma GmbH, priority 2022, published 2025).
# Where a name gives a salt, the structure may show the parent alone. Read-outs that look alike come from different tables or passages of the source.
# Key:
# [1] = Solubility in octanol, content by UV/VIS spectroscopy and pH; format: physicochemical; settings: for pH: solubility test in octanol
# Procedure: Solubility tests in octanol were conducted, and the content in the organic phase was examined by UV/VIS spectroscopy, as were the pH values.
# A. fumigatus [2] = assay: Hyphae formation of GFP-expressing A. fumigatus conidia in DMEM/BA medium (FIG. 1); format: cell-based, Aspergillus fumigatus; settings: procaine HCl 0.31 or 1.25-10 mM, 10 h, 37° C.
# Procedure: (A) Procedure for the treatment method: conidia of a green-fluorescence protein (GFP)-expressing A. fumigatus strain [5*10^6 conidia/well] were sown on cover slips in 24-well plates in 300 μl of DMEM/BA medium (0.2% BSA, 1 mM MgCl2 and 0.9 mM CaCl2) and, in each case supplemented with solvent (H2O), procaine HCl [0.31 (B) or 1.25 (C)—10 mM] or voriconazole [0.2 μg ml^−1], incubated at 37° C., 5% CO2, for 10 h. Subsequently, the fungi were fixed (3.7% formaldehyde in PBS, 30 min, room temperature) and applied to microscope slides with the aid of fluorescent dye solution (Agilent, Santa Clara, CA, USA). The hyphae size was analyzed by (B) Axio Observer.Z1 microscope (Zeiss, Jena, Germany) and the Fiji V 1.52b software (github.com/fiji/fiji). (C) Fungus size was calculated with the particle counter software (github.com/chko90/particle counter). The data are a representation of four experiments (B) or the mean+SD of four experiments with two technical samples in each case (C). Statistical significance was calculated with GraphPad Prism 9.2 (Graphpad Software, Boston, USA) using the one-way ANOVA Dunnett multiple comparison test. P values are indicated by asterisks *p<0.05.
# [3] = tested on: influenza virus A/Puerto Rico/8/34; format: cell-based
# A. fumigatus [4] = format: cell-based, Aspergillus fumigatus
# [5] = tested on: influenza virus A/Puerto Rico/8/34 (IAV); format: cell-based
# A. fumigatus [6] = format: cell-based, Aspergillus fumigatus; remark: listed apart in the source
# A. fumigatus [7] = assay: Hyphae formation of A. fumigatus in a human cell-free system, DMEM with 10% FCS (FIG. 4); format: cell-based, Aspergillus fumigatus; settings: 10 h
# Procedure: (A) Procedure for the treatment method: conidia of a GFP-expressing A. fumigatus strain [5*10^6 conidia/well] was sown on cover slips in 24-well plates and incubated with solvent (H2O) or with the specified concentrations of voriconazole, ProcCluster® (B-C) or procaine HCl (D-E) in DMEM with 10% FCS at 37° C., 5% CO2, for 10 h. Subsequently, the fungi were fixed (3.7% formaldehyde in PBS, 1 h, room temperature) and applied to microscope slides with fluorescent dye solution (Agilent, Santa Clara, CA, USA). (B, D) The growth of A. fumigatus was visualized via internal GFP expression. The scale of the immunofluorescence images corresponds to 100 μm. Detection of immunofluorescence and imaging and image processing were effected with an Axio Observer.Z1 microscope (Zeiss, Jena, Germany) and the Fiji V 1.52b software (github.com/fiji/fiji). (C, E) Fungus size was determined by means of the particle counter software (github.com/chko90/particle counter). Five immunofluorescence images were taken for each sample. The fungus sizes ascertained were normalized and the solvent control was set at 100%. Statistical significance was ascertained by a one-way ANOVA test with Dunnett multiple comparison test using GraphPad Prism 9.2 (Graphpad Software, Boston, USA) (p<0.05 was considered to be the level of statistical significance).
Compound,membrane permeability concluded from solubility in the organic phase ([1]; octanol),"Content (solubility in octanol, content in the organic phase) ([1]; octanol, UV/VIS spectroscopy) [%]",pH [1],"Content (solubility in octanol, content in the organic phase) [1]",hyphae formation by A. fumigatus (A. fumigatus [2]),pathogenic load of influenza viruses [3],pathogenic load of A. fumigatus (A. fumigatus [4]),virus load [5],hyphae formation (A. fumigatus [6]),hyphae formation (A. fumigatus [7]),"Content (solubility in octanol, content in the organic phase) ([1]; octanol, UV/VIS spectroscopy, hydrochloride) [%]","Content (solubility in octanol, content in the organic phase) ([1]; octanol, UV/VIS spectroscopy, listed as Procaine HCl, hydrochloride) [%]",pH ([1]; hydrochloride)
CCN(CC)CCOC(=O)c1ccc(N)cc1.O=C(O)O [Carbonic acid adduct of procaine],membrane-permeable,74,7.5,–,–,–,–,–,–,–,–,–,–
"CCN(CC)CCOC(=O)c1ccc(N)cc1 [Procaine, 2-(N,N-diethylamino)ethyl 4-aminobenzoate]",–,–,8.5,completely dissolved (100%),–,–,–,–,–,–,–,–,–
"CCN(CC)CCOC(=O)c1ccc(N)cc1 [Procaine hydrochloride, procaine hydrochloride]",–,–,–,–,reduces hyphae formation,reduced,reduced,reduced virus load,reduced,reduced hyphae formation,8,8,4.5
